In US10787472B2, “Prodrugs of pyridone amides useful as modulators of sodium channels” (VERTEX PHARMACEUTICALS INCORPORATED, priority 2013, dated 2020):

What was measured:
[1] = Monkey oral pharmacokinetic study; format: in vivo, cynomolgus monkeys
Procedure: (§1) Before extraction, plasma samples were diluted using blank plasma at an appropriate dilution factor, as necessary, depending on the dose level. […] After centrifugation, the supernatant extract (10 μL) was injected onto the LC/MS/MS system. The HPLC system included a Phenomenex Synergy Kinetix C8 column, 2.6 micron, 2.0 mm diameter×75 mm long eluted with a gradient mobile phase consisting of 0.1% formic acid in water or in acetonitrile.
(§2) The analytes were detected by MS/MS with Electrospray Ionization (ESI) in the mode of multiple reaction monitoring (MRM). […] The intra-day and inter-day assay accuracy was within 20% of the nominal values. The intra- and inter-day assay variability was ≤20%.
(§3) Key pharmacokinetic parameters such as AUCall, AUCextra, Cmax, tmax, Cl, Vss and t1/2 were determined.
(§4) Descriptive statistical data of pharmacokinetic parameters were calculated, including the mean, standard deviation (SD), using Watson LIMS version 7.4 SP3 or Microsoft Excel 2000.
Male or female cynomolgus monkeys (n=3 per dose group) were administered single nominal PO doses of 10, 40, 100, 300, 500, 750 and 1000 mg/kg of compound 9 by gavage. Compound 9 was formulated in 30% PEG400 and 10% TPGS in water or 5% TPGS, 5% PVP-K30 in 50 mM Citrate, pH 5. Animals were fasted overnight prior to dosing, and were fed two hours post dose. Water was available before and after dosing. […]

[2] = Rat oral pharmacokinetic study; format: in vivo, Sprague Dawley rats; details: for Cmax: male rat, analyte 9a in plasma, 5% TPGS/5% PVP-K30/50 mM Citrate pH5, mean ± SD, N=3
Procedure: as §1, §2, §3, §4
Groups of male and female Sprague Dawley rats (n=3 per dose group) were administered single nominal oral doses of 10, 100, 400, 640, 1000 mg/kg (for males) and 30, 100, 300, 640, 1000 mg/kg (for females) of compound 9 by gavage. Compound 9 was formulated in either 30% PEG400 and 10% TPGS in water or 5% TPGS, 5% PVP-K30 in 50 mM Citrate, pH 5. Animals had free access to food and water before and after dosing. Blood samples (approximately 0.25 mL each) were collected via a carotid artery catheter prior to dosing and at 0.25, 0.5, 1, 2, 4, 8, 12, 24, 48 and 72 hours post dose. Each blood sample was collected into a tube that was kept on wet ice and contained potassium EDTA as the anticoagulant. Plasma was separated and stored at approximately −70° C. until analysis.

[3] = Rat IV pharmacokinetic study; format: in vivo, Sprague Dawley rats; details: male rat, after IV bolus 1 mg/kg compound 9; LLOQ 2.5 ng/mL
Procedure: as §1, §2, §3, §4
Male Sprague Dawley rats (n=3) were administered a single nominal IV bolus dose of 1 mg/kg of compound 9 via a jugular vein cannula. […] Animals had free access to food and water before and after dosing. Blood samples (approximately 0.25 mL each) were collected via a carotid artery catheter prior to dosing and at 5 min, 10 min, 0.25, 0.5, 1, 2, 4, 8, 12, 24 hours post dose. […]

Aqueous solubility study = format: physicochemical; details: ambient conditions, 24 hours
Procedure: The aqueous solubility of compound 9 and 9a were determined according to the following procedure. Solubility data was determined at ambient conditions by equilibrating the compound with water on a shaking bed for 24 hours, followed by centrifugation and separation of the saturated solutions. The pH value of each media was measured before centrifugation, and the saturated solutions were assayed by HPLC.

[4] = Chemical and physical stability of crystalline Form B (XRPD, HPLC impurity profile, appearance); format: physicochemical
Excerpt: Chemically and physically stable means no changes were observed on the X-ray powder diffraction and HPLC impurity profiles (e.g., less than 0.2% variance) and there were no observed changes in physical appearance of the samples.

Compound: Cc1cc(F)ccc1Oc1cc(C(F)(F)F)ccc1C(=O)Nc1ccn(COP(=O)(O)O)c(=O)c1 [Compound 9, (4-(2-(4-fluoro-2-methylphenoxy)-4-(trifluoromethyl)benzamido)-2-oxopyridin-1(2H)-yl)methyl dihydrogen phosphate]
- plasma concentrations of compound 9 ([1]; monkey, after PO compound 9 10-1000 mg/kg, LLOQ 10.0 to 25.0 ng/mL): below LLOQ for the majority of the samples
- in vivo conversion of prodrug to parent compound ([1]; monkeys): converted in vivo into compound 9a
- plasma concentrations of compound 9 ([2]; rat, after PO compound 9 10-1000 mg/kg, LLOQ 2.5 to 25 ng/mL): below LLOQ for the majority of the samples
- in vivo conversion of prodrug to parent compound ([2]; rats): converted in vivo into compound 9a
- plasma concentrations of compound 9 [3]: below LLOQ for the majority of the samples

Compound: Cc1cc(F)ccc1Oc1cc(C(F)(F)F)ccc1C(=O)Nc1cc[nH]c(=O)c1 [Compound 9a, 2-(4-fluoro-2-methylphenoxy)-N-(2-oxo-1,2-dihydropyridin-4-yl)-4-(trifluoromethyl)benzamide]
- Solubility (Aqueous solubility study; pH 1.2, crystalline): <1 µg/mL
- Solubility (Aqueous solubility study; water, pH 6.0, crystalline): <1 µg/mL
- Cmax ([2]; Sprague-Dawley, compound 9 PO 100 mg/kg): 1670 ± 1.9 ng/mL
- Cmax ([2]; compound 9 PO 1000 mg/kg): 4540 ± 910 ng/mL

Compound: Cc1cc(F)ccc1Oc1cc(C(F)(F)F)ccc1C(=O)Nc1ccn(COP(=O)(O)O)c(=O)c1 [crystalline Form B, (4-(2-(4-fluoro-2-methylphenoxy)-4-(trifluoromethyl)benzamido)-2-oxopyridin-1(2H)-yl)methyl dihydrogen phosphate]
- chemical and physical stability ([4]; 5° C./dry, 40° C./dry, 25° C. with RH up to 60%, 40° C. with RH up to 75%): chemically and physically stable for at least one month
- chemical and physical stability ([4]; open dish 40° C., 40° C./RH up to 75%, 25° C./RH up to 60%, closed dish 5° C. with desiccator): chemically and physically stable for at least three months
